Assay results: the supplement of paper PMC10307832

What was measured:
Experiment in all cases: relative viability (nuclei count vs DMSO), 5 days (fraction); higher = more cells survive
Dabrafenib + Bortezomib = compound: CC(C)(C)c1nc(-c2cccc(NS(=O)(=O)c3c(F)cccc3F)c2F)c(-c2ccnc(N)n2)s1 [Dabrafenib] + CC(C)C[C@H](NC(=O)[C@H](Cc1ccccc1)NC(=O)c1cnccn1)B(O)O [Bortezomib] (partner 0.002 µM)
Method in brief: (§1)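 Lung cancer cell lines were seeded in 1536-well plates and dosed by pin tool the next day, with either a single drug or a fixed anchor-drug dose combined with five library-drug doses (not always all listed) spaced in √10 steps. Five days later, one step fixed the cells and stained their nuclei (final 0.05% Triton X-100, 1% formaldehyde, 1 ug/ml Hoechst), and nuclei were counted on 4× images. Relative viability is the nuclei count in treated wells divided by the count in vehicle wells, and each value is the median of duplicate plates.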

VX-702 + Palbociclib = compound: NC(=O)c1ccc(N(C(N)=O)c2c(F)cccc2F)nc1-c1ccc(F)cc1F [VX-702] + CC(=O)c1c(C)c2cnc(Nc3ccc(N4CCNCC4)cn3)nc2n(C2CCCC2)c1=O [Palbociclib] (partner 0.5 µM)
Method in brief: as §1

Dabrafenib + Linsitinib = compound: CC(C)(C)c1nc(-c2cccc(NS(=O)(=O)c3c(F)cccc3F)c2F)c(-c2ccnc(N)n2)s1 [Dabrafenib] + C[C@]1(O)C[C@@H](c2nc(-c3ccc4ccc(-c5ccccc5)nc4c3)c3c(N)nccn32)C1 [Linsitinib] (partner 1 µM)
Method in brief: as §1

VX-702 + Dasatinib = compound: NC(=O)c1ccc(N(C(N)=O)c2c(F)cccc2F)nc1-c1ccc(F)cc1F [VX-702] + Cc1nc(Nc2ncc(C(=O)Nc3c(C)cccc3Cl)s2)cc(N2CCN(CCO)CC2)n1 [Dasatinib] (partner 0.075 µM)
Method in brief: as §1

Cell Line	relative viability (Dabrafenib + Bortezomib; first compound 0.003 µM)	relative viability (Dabrafenib + Bortezomib; first compound 0.009487 µM)	relative viability (Dabrafenib + Bortezomib; first compound 0.03 µM)	relative viability (Dabrafenib + Bortezomib; first compound 0.09487 µM)	relative viability (Dabrafenib + Bortezomib; first compound 0.3 µM)	relative viability (VX-702 + Palbociclib; first compound 0.02 µM)	relative viability (VX-702 + Palbociclib; first compound 0.2 µM)	relative viability (VX-702 + Palbociclib; first compound 0.6325 µM)	relative viability (VX-702 + Palbociclib; first compound 2 µM)	relative viability (Dabrafenib + Linsitinib; first compound 0.003 µM)	relative viability (Dabrafenib + Linsitinib; first compound 0.009487 µM)	relative viability (Dabrafenib + Linsitinib; first compound 0.03 µM)	relative viability (Dabrafenib + Linsitinib; first compound 0.09487 µM)	relative viability (Dabrafenib + Linsitinib; first compound 0.3 µM)	relative viability (VX-702 + Dasatinib; first compound 0.02 µM)	relative viability (VX-702 + Dasatinib; first compound 0.2 µM)	relative viability (VX-702 + Dasatinib; first compound 0.6325 µM)	relative viability (VX-702 + Dasatinib; first compound 2 µM)
HCC-44	0.884	0.854	0.935	0.853	0.964	1.01	1	0.955	0.98	0.624	0.706	0.822	0.605	0.701				
HCC-78		0.655	0.543	0.4	0.513	0.493	0.486	0.513	0.487		0.694	0.442	0.45	0.628	0.449	0.338	0.351	0.356
HCC-366		1.05	0.794	0.945	1.08	0.409	0.412	0.389	0.333		0.787	0.0905	0.549	0.892	0.786	0.601	0.598	0.22
HCC-827	0.778	1.03	1.06		0.996	0.452	0.462	0.446	0.316	0.905	0.964	0.96	0.998	0.974	0.274	0.342	0.271	0.145
HOP-62		0.809	0.861	0.235	0.706	0.487	0.479	0.451	0.551		1.07	0.804	0.831	0.977	0.741	0.702	0.674	0.735
IA-LM	0.84	0.646	0.492	0.471	0.222					0.443	0.575	0.547	0.283	0.424				
LK-2						0.533	0.618	0.567	0.614	0.587	0.875	0.225	0.381	0.53	0.269	0.329	0.219	0.288
NCI-H358						0.127	0.141	0.134	0.142		1.03	0.705	0.813	0.776	0.146	0.144	0.156	0.16
NCI-H522						1.12	0.988	0.83	1.08						0.978	0.7	0.83	0.984
NCI-H596	0.6	1	0.818	0.895	0.986					1	1.14	0.796	1.08	1.14	0.672	0.579	0.56	0.57
NCI-H1299	0.962	0.97	1	0.993	1					0.941	0.959	0.798	0.743	0.625				
NCI-H1395						0.565	0.531	0.654	0.623		1.07	1.05	1.07	0.854	0.414	0.413	0.415	0.447
NCI-H1563	0.855	0.897	0.687	0.898	0.929					1.16	1.18	1.16	1.2	1.39	0.395	0.445	0.416	0.451
NCI-H1623															0.515	0.453	0.422	0.5
NCI-H1648						0.268	0.294	0.244	0.319									
NCI-H1650	0.183	0.214	0.24	0.177	0.217	0.325	0.35	0.445	0.297						0.385	0.346	0.334	0.265
NCI-H1703	0.422	0.496	0.409	0.28	0.43					0.335	1.12	0.75	0.834	1.18				
NCI-H1793						0.294		0.314	0.269	0.832	1.53	0.702	0.781	0.914	0.412	0.392	0.382	0.366
NCI-H1944						0.303	0.326	0.337	0.32	1.17	1.28	1.06	1.18	1.14	0.226	0.212	0.221	0.169
NCI-H2170						0.355	0.374	0.42	0.369						0.532	0.654	0.544	0.74
NCI-H2342						0.511	0.606	0.512	0.539						0.327	0.335	0.348	0.329
SK-MES-1						0.334	0.312	0.293	0.314	1.07	1.04	1.06	1.04	1.12	0.374	0.389	0.342	0.398
